This passage reports inhibition results from US20090253669A1, “Substituted Sulfonamide Compounds” (GRUENENTHAL GmbH, priority 2008, published 2009).

Read-outs that look alike come from different tables or passages of the source.

What is called inhibition is the relative decrease from the control value, in per cent.

The target of assay [1] is T1, B1R receptor of the rat (rB1R) (Rattus norvegicus, UniProt P97583).
T1 construct: host or cells: CHO K1 cells
T1 sequence (P97583 1-337): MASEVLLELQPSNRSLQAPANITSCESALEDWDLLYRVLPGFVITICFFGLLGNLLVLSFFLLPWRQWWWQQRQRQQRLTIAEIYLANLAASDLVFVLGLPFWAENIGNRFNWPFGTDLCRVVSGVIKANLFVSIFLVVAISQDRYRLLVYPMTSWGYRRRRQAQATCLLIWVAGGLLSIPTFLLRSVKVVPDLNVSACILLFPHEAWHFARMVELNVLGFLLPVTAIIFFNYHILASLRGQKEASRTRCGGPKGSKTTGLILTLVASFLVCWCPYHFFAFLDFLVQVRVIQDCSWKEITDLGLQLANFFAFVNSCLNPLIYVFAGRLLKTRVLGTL
As to the kind of experiment: FLIPR Ca2+ assay on rB1R-transfected CHO K1 cells, antagonistic action. In kind it is cell-based.

The target in assay [2] is T2, human B1R receptor (hB1R) (Homo sapiens, UniProt P46663).
T2 construct: host or cells: CHO K1 cells
T2 sequence (P46663 1-353): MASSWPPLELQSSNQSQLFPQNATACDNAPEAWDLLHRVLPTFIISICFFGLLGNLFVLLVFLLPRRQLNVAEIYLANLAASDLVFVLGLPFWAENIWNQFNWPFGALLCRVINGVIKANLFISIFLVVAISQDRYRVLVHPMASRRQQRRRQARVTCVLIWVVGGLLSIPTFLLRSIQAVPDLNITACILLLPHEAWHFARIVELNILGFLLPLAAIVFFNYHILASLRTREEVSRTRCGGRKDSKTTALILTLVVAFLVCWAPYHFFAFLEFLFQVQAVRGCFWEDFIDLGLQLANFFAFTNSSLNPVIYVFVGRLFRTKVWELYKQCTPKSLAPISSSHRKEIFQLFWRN
The experiment in a line: FLIPR Ca2+ assay on hB1R-transfected CHO K1 cells, antagonistic action. It is filed as cell-based.

The mark [3] stands for this setting: CHO-K1, 10 μM test substance, agonist Des-Arg9-bradykinin 100 nM, % of maximum achievable inhibition, read-out: rB1R [10 μM] % inhibition.
Setting [4] is: CHO-K1, 10 μM test substance, agonist Lys-Des-Arg9-bradykinin 0.5 nM, % of maximum achievable inhibition, read-out: hB1R [10 μM] % inhibition.
Setting [5] is: CHO-K1, read-out: rB1R [10 μM] % inhibition.
Where [6] appears, read: CHO-K1, read-out: hB1R [10 μM] % inhibition.

Turning to `COc1cc(C)c(S(=O)(=O)N2CCCCC2COCC(=O)N(C)CCCC2CCC(c3ccccc3)(N(C)C)CC2)c(C)c1` (stereo not shown) [Compound 203, N-(3-(4-(dimethylamino)-4-phenylcyclohexyl)propyl)-2-((1-(4-methoxy-2,6-dimethylphenylsulfonyl)piperidin-2-yl)methoxy)-N-methylacetamide], the inhibition at 10 µM is 98% in assay [1] (setting [3]) and 99% in assay [2] (setting [4]).
The like results for `COc1cc(C)c(S(=O)(=O)N2CCCCC2COCC(=O)N(C)CCCC2CCC(c3cccc(F)c3)(N3CCCC3)CC2)c(C)c1` (stereo not shown) [Compound 204, N-(3-(4-(3-fluorophenyl)-4-(pyrrolidin-1-yl)cyclohexyl)propyl)-2-((1-(4-methoxy-2,6-dimethylphenylsulfonyl)piperidin-2-yl)methoxy)-N-methylacetamide] were, in that order, 103% and 99%.
The like results for `COc1cc(C)c(S(=O)(=O)N2CCCCC2COCC(=O)N(C)CCCC2CCC(c3ccccc3)(N3CCC3)CC2)c(C)c1` (stereo not shown) [Compound 205, N-(3-(4-(azetidin-1-yl)-4-phenylcyclohexyl)propyl)-2-((1-(4-methoxy-2,6-dimethylphenylsulfonyl)piperidin-2-yl)methoxy)-N-methylacetamide] were, in that order, 100% and 100%.
The like results for `COc1cc(C)c(S(=O)(=O)N(C)CCOCC(=O)N2CCC(c3ccncc3)(N(C)C)CC2)c(C)c1` [Compound 206, N-(2-(2-(4-(dimethylamino)-4-(pyridin-4-yl)piperidin-1-yl)-2-oxoethoxy)ethyl)-4-methoxy-N,2,6-trimethylbenzenesulfonamide] were, in that order, 99% and 100%.
`COc1cc(C)c(S(=O)(=O)N(C)CCOCC(=O)N(C)CCC2CCC(c3cccnc3)(N(C)C)CC2)c(C)c1` (stereo not shown) [Compound 207, N-(2-(4-(Dimethylamino)-4-(pyridin-3-yl)cyclohexyl)ethyl)-2-(2-(4-methoxy-N,2,6-trimethylphenylsulfonamido)ethoxy)-N-methylacetamide]: the values for the inhibition at 10 µM in assay [1] (setting [3]) and in assay [2] (setting [4]) were 101% and 100%, respectively.
The corresponding values for `COc1cc(C)c(S(=O)(=O)N(C)CCOCC(=O)N2CCC(c3cccnc3)(N(C)C)CC2)c(C)c1` [Compound 208, N-(2-(2-(4-(Dimethylamino)-4-(pyridin-3-yl)piperidin-1-yl)-2-oxoethoxy)ethyl)-4-methoxy-N,2,6-trimethylbenzenesulfonamide] are 102% and 100%.
For the compound `CNC1(c2ccncc2)CCN(C(=O)COCCN(C)S(=O)(=O)c2c(C)cc(OC)cc2C)CC1` [Compound 209, 4-Methoxy-N,2,6-trimethyl-N-(2-(2-(4-(methylamino)-4-(pyridin-4-yl)piperidin-1-yl)-2-oxoethoxy)ethyl)benzenesulfonamide], the results for the inhibition at 10 µM in assay [1] (setting [5]) and in assay [2] (setting [6]) were 99% and 100%, respectively.
Regarding `COc1cc(C)c(S(=O)(=O)N(C)CCOCC(=O)N2CCC(c3cccc(F)c3)(N3CCN(C)CC3)CC2)c(C)c1` [Compound 210, N-(2-(2-(4-(3-Fluorophenyl)-4-(4-methylpiperazin-1-yl)piperidin-1-yl)-2-oxoethoxy)ethyl)-4-methoxy-N,2,6-trimethylbenzenesulfonamide], the inhibition at 10 µM in assay [1] (setting [3]) came out at 101%; in assay [2] (setting [4]), 100%.
For `COc1cc(C)c(S(=O)(=O)N2CCCCC2COCC(=O)N2CCC(c3cccc(F)c3)(N3CCN(C)CC3)CC2)c(C)c1` (stereo not shown) [Compound 211, 1-(4-(3-Fluorophenyl)-4-(4-methylpiperazin-1-yl)piperidin-1-yl)-2-((1-(4-methoxy-2,6-dimethylphenylsulfonyl)piperidin-2-yl)methoxy)ethanone], the inhibition at 10 µM in assay [1] (setting [3]) came out at 101%; in assay [2] (setting [4]), 100%.
The like results for `Cc1cccc(Cl)c1S(=O)(=O)N1CCCCC1CCCC(=O)N1CCC(c2cccc(F)c2)(N2CCN(C)CC2)CC1` (stereo not shown) [Compound 212, 4-(1-(2-Chloro-6-methylphenylsulfonyl)piperidin-2-yl)-1-(4-(3-fluorophenyl)-4-(4-methylpiperazin-1-yl)piperidin-1-yl)butan-1-one] were, in that order, 100% and 100%.
As to `CN1CCN(C2(c3cccc(F)c3)CCN(C(=O)CCCC3CCCCN3S(=O)(=O)c3ccccc3C(F)(F)F)CC2)CC1` (stereo not shown) [Compound 213, 1-(4-(3-Fluorophenyl)-4-(4-methylpiperazin-1-yl)piperidin-1-yl)-4-(1-(2-(trifluoromethyl)phenylsulfonyl)piperidin-2-yl)butan-1-one], the inhibition at 10 µM in assay [1] (setting [5]) and in assay [2] (setting [6]) was 100% each time.
With `COc1cc(C)c(S(=O)(=O)N2CCCCC2CCCC(=O)N2CCC(c3cccc(F)c3)(N3CCN(C)CC3)CC2)c(C)c1` (stereo not shown) [Compound 214, 1-(4-(3-Fluorophenyl)-4-(4-methylpiperazin-1-yl)piperidin-1-yl)-4-(1-(4-methoxy-2,6-dimethylphenylsulfonyl)piperidin-2-yl)butan-1-one], the inhibition at 10 µM in assay [1] (setting [3]) worked out at 101%; in assay [2] (setting [4]) it was 99%.
For `CN1CCN(C2(c3cccc(F)c3)CCN(C(=O)CCCC3CCCCN3S(=O)(=O)c3cccc4ccccc34)CC2)CC1` (stereo not shown) [Compound 215, 1-(4-(3-Fluorophenyl)-4-(4-methylpiperazin-1-yl)piperidin-1-yl)-4-(1-(naphthalen-1-ylsulfonyl)piperidin-2-yl)butan-1-one], the inhibition at 10 µM in assay [1] (setting [5]) and in assay [2] (setting [6]) was 100% in each case.
With `CN1CCN(C2(c3cccc(F)c3)CCN(C(=O)CCCC3CCCCN3S(=O)(=O)c3ccc4ccccc4c3)CC2)CC1` (stereo not shown) [Compound 216, 1-(4-(3-Fluorophenyl)-4-(4-methylpiperazin-1-yl)piperidin-1-yl)-4-(1-(naphthalen-2-ylsulfonyl)piperidin-2-yl)butan-1-one], the inhibition at 10 µM in assay [1] (setting [3]) worked out at 95%; in assay [2] (setting [4]), 100%.
The like results for `COc1cc(C)c(S(=O)(=O)N2CCC(OCC(=O)N3CCC(c4cccc(F)c4)(N4CCN(C)CC4)CC3)C2)c(C)c1` (stereo not shown) [Compound 217, 1-(4-(3-Fluorophenyl)-4-(4-methylpiperazin-1-yl)piperidin-1-yl)-2-(1-(4-methoxy-2,6-dimethylphenylsulfonyl)pyrrolidin-3-yloxy)ethanone] were, in that order, 98% and 100%.
With `COc1cc(C)c(S(=O)(=O)N2c3ccccc3OCC2COCC(=O)N2CCC(c3cccc(F)c3)(N3CCN(C)CC3)CC2)c(C)c1` (stereo not shown) [Compound 221, 1-(4-(3-Fluorophenyl)-4-(4-methylpiperazin-1-yl)piperidin-1-yl)-2-((4-(4-methoxy-2,6-dimethylphenylsulfonyl)-3,4-dihydro-2H-benzo[b][1,4]oxazin-3-yl)methoxy)ethanone], the inhibition at 10 µM in assay [1] (setting [3]) and in assay [2] (setting [4]) was 99% each time.
For the compound `Cc1cccc(Cl)c1S(=O)(=O)N1c2ccccc2OCC1COCC(=O)N1CCC(c2cccc(F)c2)(N2CCN(C)CC2)CC1` (stereo not shown) [Compound 222, 2-((4-(2-Chloro-6-methylphenylsulfonyl)-3,4-dihydro-2H-benzo[b][1,4]oxazin-3-yl)methoxy)-1-(4-(3-fluorophenyl)-4-(4-methylpiperazin-1-yl)piperidin-1-yl)ethanone], the inhibition at 10 µM in assay [1] (setting [3]) and in assay [2] (setting [4]) was 97% in each case.
In the case of `CN1CCN(C2(c3cccc(F)c3)CCN(C(=O)COCC3COc4ccccc4N3S(=O)(=O)c3ccccc3C(F)(F)F)CC2)CC1` (stereo not shown) [Compound 223, 1-(4-(3-Fluorophenyl)-4-(4-methylpiperazin-1-yl)piperidin-1-yl)-2-((4-(2-(trifluoromethyl)phenylsulfonyl)-3,4-dihydro-2H-benzo[b][1,4]oxazin-3-yl)methoxy)ethanone], the inhibition at 10 µM is 97% in assay [1] (setting [3]) and 84% in assay [2] (setting [4]).
For the compound `CN1CCN(C2(c3cccc(F)c3)CCN(C(=O)COCC3CCCCN3S(=O)(=O)c3ccccc3C(F)(F)F)CC2)CC1` (stereo not shown) [Compound 225, 1-(4-(3-Fluorophenyl)-4-(4-methylpiperazin-1-yl)piperidin-1-yl)-2-((1-(2-(trifluoromethyl)phenylsulfonyl)piperidin-2-yl)methoxy)ethanone], the inhibition at 10 µM was 101% in assay [1] (setting [5]) and 100% in assay [2] (setting [6]).
As to `COc1cc(C)c(S(=O)(=O)N2CCCCC2COCCC(=O)N2CCC(c3cccc(F)c3)(N3CCN(C)CC3)CC2)c(C)c1` (stereo not shown) [Compound 226, 1-(4-(3-Fluorophenyl)-4-(4-methylpiperazin-1-yl)piperidin-1-yl)-3-((1-(4-methoxy-2,6-dimethylphenylsulfonyl)piperidin-2-yl)methoxy)propan-1-one], the inhibition at 10 µM in assay [1] (setting [3]) and in assay [2] (setting [4]) was 100% each time.
